For 15 molecules, TGI results are on record in PubChem BioAssay (NCI).

Holding throughout (experiment): NCI tumour cell line growth inhibition, 48 h
Experiment [1] has as its system MDA-N.
The test system of experiment [2] is HOP-92 NSCLC.
Experiment [3] relates to IGROV1 ovarian.
Experiment [4] has as its system TK-10 renal.
The test system of experiment [5] is UO-31 renal.
In experiment [6] the test system is COLO 205 colon.
The test system of experiment [7] is HCT-116 colon.
The test system of experiment [8] is SNB-75 CNS.
Experiment [9] relates to SR leukemia.
Experiment [10] deals with NCI-H522 lung.

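Results reflect a 48-hour exposure of cells in 96-well plates to compound at five concentrations. TGI denotes the concentration required for complete inhibition of growth.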 Bounds are passed on as bounds.

With `O=C(O)C1SCCS1`, the TGI in experiment [1], in [2], in experiment [3], in experiment [4], in experiment [5] and in experiment [6] was greater than 100 µM each time. The TGI in experiment [7], in experiment [8] and in experiment [9] was greater than 100 µM in each case.

Consider `O=C1C[C@H](c2ccccc2)C2(C(=O)c3ccccc3C2=O)[C@H](c2ccccc2)C1`, for which the TGI in experiment [1], in experiment [2], in experiment [3], in experiment [5], in experiment [10] and in [6] was greater than 100 µM in each case. Besides, the TGI in experiment [7], in experiment [8] and in experiment [9] was greater than 100 µM throughout.

As for `CCOC(=O)C(C)c1nc2cc(N3CCN(C)CC3)c(F)cc2[nH]c1=O` (centres undefined), the TGI in experiment [1], in experiment [2], in experiment [3], in [5], in experiment [10] and in experiment [6] was greater than 100 µM each time. In addition, the TGI in experiment [7], in experiment [8] and in experiment [9] was greater than 100 µM in each case.

For the molecule `C/C(N=Nc1nc2ccccc2o1)=C1/C=CC=CN1O`, the TGI was greater than 100 µM in experiment [1]; 39.7 µM in [2]; greater than 100 µM in [3]; 34.9 µM in experiment [4]; greater than 100 µM in experiment [5]; 26.7 µM in [10]. In addition, the TGI was greater than 100 µM in experiment [6], greater than 100 µM in [7] and 19.5 µM in experiment [9].

As for `NC(=O)NCCCC(NC(=O)OCCCCCn1ccc(=O)[nH]c1=O)C(=O)O` (centres undefined), the TGI in [1], in experiment [2], in [3], in experiment [4], in [5] and in [6] was greater than 100 µM each time. The TGI in experiment [7], in experiment [8] and in [9] was greater than 100 µM each time.

Regarding `Cc1c(F)c(N)c2c(=O)cc(-c3ccc(NC(=O)C(N)CCCN=C(N)N)c(F)c3)oc2c1F` (centres undefined), the TGI in experiment [1] is greater than 100 µM; in [2] it was greater than 100 µM; in [3], 10.8 µM; in experiment [4], 30.5 µM; in experiment [5], greater than 55.8 µM; in experiment [10], 97.7 µM. Also, the TGI in [6], in experiment [7] and in [9] was greater than 100 µM throughout.

As for `COc1ccc2c(c1)-c1nn(CCN(C)C)c3ccc(C(=O)NCCCN(C)CCCNC(=O)c4ccc5c6c(nn5CCN(C)C)-c5cc(OC)ccc5Nc46)c(c13)N2`, the TGI in [1] came out at 0.564 µM; in experiment [3] it was 1.47 µM; in experiment [4], 4.95 µM; in experiment [5] it was 4.41 µM; in [10] it was 0.273 µM; in experiment [6], 0.224 µM. For the same molecule, the figures for the TGI in experiment [7], in [8] and in [9] were 1.74 µM, 0.393 µM and 3.39 µM, respectively.

For `CCOC(=O)N(C)C1(c2ccccc2)CCN(CCCC(=O)c2ccc(F)cc2)CC1`, the TGI in experiment [1] is 41.5 µM; in [2], 78.6 µM; in [3] it was greater than 100 µM; in [4] it was greater than 100 µM; in experiment [10], greater than 100 µM; in experiment [6], 29.7 µM. Also, the TGI in experiment [7] was greater than 100 µM; in experiment [9], 45.8 µM.

In the case of `CN(c1ccccc1Cl)S(=O)(=O)c1ccccc1[N+](=O)[O-]`, the TGI in experiment [1], in experiment [3], in experiment [4], in experiment [5], in [10] and in experiment [6] was greater than 100 µM in each case. The TGI in experiment [7], in experiment [8] and in [9] was greater than 100 µM each time.

With `COc1ccc(C2(C3c4cc(OC)c(OC)cc4CCN3C)SCCCS2)cc1O` (centres undefined), the TGI in experiment [1], in experiment [2], in experiment [3], in [4], in experiment [5] and in [10] was greater than 100 µM in each case. Also, the TGI in [6], in experiment [7] and in [9] was greater than 100 µM each time.

With `CC(C)(C)OC(=O)NCC(=O)N1CCCN(C(=O)CNC(=O)OC(C)(C)C)CC1`, the TGI in experiment [1], in [2], in experiment [3], in experiment [4], in experiment [5] and in [10] was greater than 100 µM in each case. In addition, the TGI in [6], in experiment [7] and in experiment [8] was greater than 100 µM each time.

As for `NC(=O)CS(=O)CC(N)C(=O)O` (centres undefined), the TGI in experiment [1], in experiment [2], in [3], in [4], in experiment [5] and in experiment [10] was greater than 100 µM in each case. The TGI in [7], in [8] and in experiment [9] was greater than 100 µM in each case.

With `COc1ccc(C2c3cc4c(cc3OC(N3CCCCC3)C2C)OCO4)cc1` (centres undefined), the TGI in experiment [1], in [3], in experiment [4], in [5], in experiment [10] and in experiment [6] was greater than 100 µM throughout. The TGI in experiment [7], in experiment [8] and in [9] was greater than 100 µM in each case.

With `CC(=O)NC1=C(C)C(=O)c2c(nc3n2CC[C@H]3OC(C)=O)C1=O`, the TGI was determined as 1.69 µM in [1]; 1.83 µM in experiment [2]; 8.71 µM in [3]; 13.9 µM in experiment [4]; 6.78 µM in experiment [5]; 3.73 µM in [10]. Moreover, the TGI in [6] came to 3.36 µM; in [7] it was 3.14 µM; in experiment [8], 9.18 µM.

As for `CC(=O)OCC1OC(c2nnc(C)o2)=CC(OC(C)=O)C1OC(C)=O` (centres undefined), the TGI in experiment [1], in [3], in [4], in [5], in experiment [10] and in experiment [6] was greater than 100 µM in each case. Moreover, the TGI in [7], in experiment [8] and in experiment [9] was greater than 100 µM throughout.
